One experiment has as its target T1, BMX (Homo sapiens, UniProt P51813).
T1 sequence (P51813 1-675): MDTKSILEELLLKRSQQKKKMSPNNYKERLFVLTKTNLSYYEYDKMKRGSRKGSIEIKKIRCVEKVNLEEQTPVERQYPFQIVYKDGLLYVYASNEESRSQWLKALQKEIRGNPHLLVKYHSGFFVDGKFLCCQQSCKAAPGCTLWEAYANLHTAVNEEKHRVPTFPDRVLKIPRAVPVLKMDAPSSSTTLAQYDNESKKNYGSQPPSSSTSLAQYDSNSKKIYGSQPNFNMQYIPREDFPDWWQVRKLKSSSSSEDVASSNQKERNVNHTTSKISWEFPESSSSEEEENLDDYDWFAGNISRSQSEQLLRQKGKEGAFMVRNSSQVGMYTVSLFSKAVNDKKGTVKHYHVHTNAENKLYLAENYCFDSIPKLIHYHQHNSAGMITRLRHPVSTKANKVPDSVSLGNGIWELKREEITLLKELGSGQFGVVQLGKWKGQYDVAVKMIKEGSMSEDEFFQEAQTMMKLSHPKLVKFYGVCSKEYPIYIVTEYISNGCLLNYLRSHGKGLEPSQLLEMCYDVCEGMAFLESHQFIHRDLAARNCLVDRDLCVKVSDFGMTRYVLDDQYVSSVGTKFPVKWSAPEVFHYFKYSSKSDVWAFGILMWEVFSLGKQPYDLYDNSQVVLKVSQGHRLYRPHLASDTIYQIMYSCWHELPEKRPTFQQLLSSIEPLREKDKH
Description: Kinase selectivity biochemical assay (FRET), BMX.

For experiment [1], the target named is T2, BTK (Homo sapiens, UniProt Q06187). Description: hBTK Lanthascreen biochemical activity. On the technique in general: TR-FRET usually uses a lanthanide donor and a delayed reading to cut background.
T2 sequence (Q06187 whole entry): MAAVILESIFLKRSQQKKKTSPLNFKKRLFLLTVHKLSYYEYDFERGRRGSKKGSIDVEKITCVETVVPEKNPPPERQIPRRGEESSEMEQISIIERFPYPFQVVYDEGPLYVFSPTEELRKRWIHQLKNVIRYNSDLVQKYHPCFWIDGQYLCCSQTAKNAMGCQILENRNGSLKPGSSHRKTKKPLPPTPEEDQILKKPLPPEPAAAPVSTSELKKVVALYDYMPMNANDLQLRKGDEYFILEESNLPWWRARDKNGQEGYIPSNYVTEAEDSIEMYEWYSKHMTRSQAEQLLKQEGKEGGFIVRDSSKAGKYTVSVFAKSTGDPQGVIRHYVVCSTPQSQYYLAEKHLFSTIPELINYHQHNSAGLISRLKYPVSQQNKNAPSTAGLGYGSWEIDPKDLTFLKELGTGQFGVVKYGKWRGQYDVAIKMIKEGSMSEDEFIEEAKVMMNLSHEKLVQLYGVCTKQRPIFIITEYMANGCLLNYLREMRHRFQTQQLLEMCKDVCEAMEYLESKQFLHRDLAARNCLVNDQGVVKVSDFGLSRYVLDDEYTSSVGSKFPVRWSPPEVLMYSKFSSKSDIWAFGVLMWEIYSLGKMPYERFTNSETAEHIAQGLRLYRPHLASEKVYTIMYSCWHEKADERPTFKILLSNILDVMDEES
The target in experiment [2] is T3, BTK (Rattus norvegicus, UniProt Q5S255).
T3 construct: endogenous in cells; host or cells: rat PBMCs (normal rats in vitro; CIA model rats ex vivo)
T3 sequence (Q5S255 1-660): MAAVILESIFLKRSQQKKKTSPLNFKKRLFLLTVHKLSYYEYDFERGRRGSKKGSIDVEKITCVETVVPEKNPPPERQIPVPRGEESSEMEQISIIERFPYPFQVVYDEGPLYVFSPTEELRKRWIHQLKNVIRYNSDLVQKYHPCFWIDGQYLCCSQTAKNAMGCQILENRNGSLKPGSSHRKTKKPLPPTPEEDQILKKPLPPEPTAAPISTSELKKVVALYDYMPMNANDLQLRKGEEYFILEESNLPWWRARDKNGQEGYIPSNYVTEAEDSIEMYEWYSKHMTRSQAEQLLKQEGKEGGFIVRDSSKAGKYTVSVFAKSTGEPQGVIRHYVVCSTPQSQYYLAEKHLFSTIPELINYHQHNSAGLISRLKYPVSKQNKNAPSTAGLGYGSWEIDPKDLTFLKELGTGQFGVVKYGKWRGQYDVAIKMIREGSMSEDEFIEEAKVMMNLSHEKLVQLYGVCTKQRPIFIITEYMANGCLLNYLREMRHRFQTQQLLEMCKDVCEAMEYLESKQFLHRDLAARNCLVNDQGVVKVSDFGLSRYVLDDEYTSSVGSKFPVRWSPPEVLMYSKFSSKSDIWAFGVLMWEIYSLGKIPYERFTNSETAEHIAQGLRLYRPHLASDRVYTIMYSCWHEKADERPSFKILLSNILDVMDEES
Description: BTK occupancy molecular probe assay in rat PBMCs. It is filed as cell-based. The following applies: 1 h treatment, biotinylated probe; read-out: IC50, BTK target modulation (occupancy) in rat PBMCs. Here is the method: (§1) The BTK occupancy assay and analysis of BTK phosphorylation inhibition were performed as described previously. Briefly, isolated PBMCs were lysed with RIPA buffer (R0278, Sigma-Aldrich) containing 1 × protease/phosphatase inhibitor (1861281, Thermo Fisher Scientific) and EDTA (1861274, Thermo Fisher Scientific). The supernatants were collected by 10 min at 14,000 × g in microcentrifuge at 4 °C and biotinylated probe was added to bind free BTK for 1 h. Rabbit anti-BTK Ab (1:5000 in 1% BSA) bound the captured BTK/probe complex, and was detected with […] antibody conjugated with HRP then ultra-TMB solution was added to each well for the free BTK analysis. Analysis of free and total BTK levels for the phase I study was conducted by Cambridge Biomedical Inc. (MA, USA). BTK occupancy was calculated by taking the free BTK and total BTK results from a given donor and used the following formula: %BTKoccupancy=100%-FreeBTK/totalBTK×100.
BTK occupancy (%) was calculated from the free BTK percentage, which was compared with that of the untreated control group. […] Bone erosion ( →) was quantified a subchondral and bone destruction and synovitis (*) was scored degree of pannus formation, including synovial inflammation, hypertrophy, interstitial edema, and fibrosis (H&E). Cartilage damage (□) was semiquantitatively scored as an intensity of Safranin-O staining (red). […]

The subject of another experiment is CIA model rats. Put plainly: Histopathological assessment of arthritis in CIA rats. The experiment is classed as in vivo, rat. The note with it: for Histological assessment (Means of the 4 indexes): mean ± SEM. The procedure: Briefly, the hind legs of each rat were fixed with 10% formalin, decalcified in 5% formic acid, embedded in paraffin, and cut for pathological staining. Arthritis, bone erosion and synovitis were determined by hematoxylin and eosin (H&E) staining, and cartilage damage was evaluated by safranin O staining. All parameters were scored on a scale of 0 to 4 based on severity according to the following criteria: 0 = no erosion, 1 = mild (focal subchondral erosion), 2 = moderate (multiple subchondral erosions), 3 = high (multiple subchondral erosions and focal erosion of the talus), and 4 = maximum (multiple erosions of the tarsal and metatarsal bones). This test was conducted by the Department of Pathology of Asan Medical Center (University of Ulsan College of Medicine, Republic of Korea).

In experiment [3] the target is T3, BTK. Put plainly: BTK occupancy and BTK phosphorylation in CIA model rats (PD). The experiment is classed as in vivo. The note with it: for correlation coefficient, arthritis score vs BTK occupancy: negative correlation; for correlation coefficient, clinical arthritis score vs BTK phosphorylation: positive correlation. The procedure: as §1
For analysis of BTK phosphorylation inhibition, the relative percentage of phosphorylated BTK was calculated by the following equation: phospho-BTK level / total BTK level × 100. The results are presented as the mean percentage ± S.D.
Figure 5 Pharmacologic inhibition of BTK and its correlation with efficacy. (A,B) Whole blood was collected from the CIA-induced rats at the 0, 4, 12, 24 h after final drug administration, and then PBMCs and plasma were isolated. BTK phosphorylation was detected by immunoblotting and normalized to the total BTK level, and BTK occupancy was measured by ELISA using a biotinylated probe as described in the Materials and Methods. […] Full-length blots are presented in Supplementary Fig. 1. (C) Correlations between drug efficacy (clinical arthritis score) and the PD markers BTK phosphorylation percentage (left)/drug efficacy and BTK occupancy percentage (right). Linear regression was performed by using GraphPad Prism 6. The data are presented as the mean ± S.D.

Experiment [4] deals with T2, BTK. Description: BTK occupancy in whole blood ex vivo. It is filed as cell-based. More on the design: from tissue; host or cells: whole blood.
[5] abbreviates: 3 mg/kg, ankle joints, vs CIA control.

Molecules are shown by their SMILES.

The IC50 is the concentration that inhibits the measured activity by half. Regarding `C=CC(=O)Nc1cccc(Oc2nc(Nc3ccc(N4CCN(C)CC4)cc3)nc3ccoc23)c1` [Poseltinib], the IC50 is under 10 nM on BMX, 6 nM against BTK [1], 14.6 ± 3.3 nM at BTK [2] and 160 nM on BTK [4]. The figures for the “Histological assessment (Means of the 4 indexes)” value in the experiment with CIA model rats (0.3 mg/kg oral once daily), in the experiment on CIA model rats (1 mg/kg oral once daily) and in the experiment with CIA model rats (3 mg/kg oral once daily) were 6.9 ± 0.2, 6.3 ± 0.2 and 4.1 ± 0.2, respectively. Also, the arthritis index reduction with CIA model rats (setting [5]) was 44%. Also, the “bone erosion index reduction” value with CIA model rats (setting [5]) came out at 38%. For the same compound, the “cartilage degradation index reduction” value in the experiment on CIA model rats (setting [5]) turned out to be 37%. In the experiment on CIA model rats (setting [5]), this compound showed a synovitis index reduction of 37%. Also, the BTK occupancy entry at BTK [3] (3 mg/kg, 4 h after the last administration) is given as “full BTK occupancy”; on BTK [3] (3 mg/kg, at 12 and 24 h) it was “completely occupied”; on BTK [3] (0.3 and 1 mg/kg, 4 h after the last administration), “partial BTK occupancy”. At BTK [3] (0.3 and 1 mg/kg, at 12 and 24 h), the BTK phosphorylation result is given as “partially inhibited”. Also, the “correlation coefficient, arthritis score vs BTK occupancy” value on BTK [3] (4 h) is 0.8003; on BTK [3] (12 h), 0.8757; at BTK [3] (24 h) it was 0.8528. In addition, the “correlation coefficient, clinical arthritis score vs BTK phosphorylation” value is 0.6750 at BTK [3] (4 h), 0.7795 at BTK [3] (12 h) and 0.8603 at BTK [3] (24 h).

(Values after PMC8455565 (Scientific Reports, 2021).)
